Inhibition data for 28 molecules are collected here from patent US20130150340A1, “6-(4-Hydroxy-phenyl)-1H-pyrazolo[3,4-b]pyridine-4-carboxylic acid amide derivatives as kinase inhibitors” (SANOFI, priority 2011, published 2013).

In the assay the target is T1, human full-length recombinant PKC βII (Homo sapiens, UniProt P05771).
T1 construct: Active human full-length recombinant PKC βII; purchased Invitrogen GmbH, Darmstadt, Germany
The experiment in a line: Determination of PKC βII inhibition (Caliper mobility-shift kinase assay). The class given is biochemical. The note with it: example compounds at a final concentration of 1.14 μM (±0.15 μM); 60 min incubation at 32° C. On the procedure:
Determination of PKC 3H Inhibition
PKC βII inhibition was determined according to the following protocol:
Active human full-length recombinant PKC βII and the peptide substrate, Fluorescein-RFARKGSLRQKNV, were purchased from Invitrogen GmbH, Darmstadt, Germany. Adenosine-5′-triphosphate (ATP), bovine serum albumine (BSA), dimethylsulphoxide (DMSO), 4-(2-hydroxyethyl)piperazine-1-ethanesulfonic acid (Hepes), Triton X-100, 1,2-Dioleoyl-sn-glycerol (DAG), L-α-Phosphatidyl-L-serine (PS), calcium chloride (CaCl2), and Pluronic F-68 were purchased from Sigma-Aldrich, Munich, Germany. Magnesium chloride, 1 M sodium hydroxide solution, 1M hydrochloric acid solution and EDTA were obtained from Merck Biosciences, Darmstadt, Germany.
Test compounds were diluted to three times the test concentration in buffer 1 (30 mM Hepes-NaOH, pH 7.4, 0.01% Pluronic F-68 and 3% (v/v) DMSO). The PKC βII enzyme was diluted to a concentration of 30 ng/ml in buffer 2 (30 mM Hepes-NaOH, pH 7.4, 15 mM MgCl2, 150 μM CaCl2, 150 μg/ml PS, 60 μg/ml DAG, and 0.045% (w/v) Triton X-100). The peptide substrate and ATP were diluted to concentrations of 3 μM and 120 μM, respectively, in buffer 2. Two μl of the compound solution were mixed with 2 μl of the diluted enzyme in a 384-well small volume microtiter plate (Greiner, Bio-One, Frickenhausen, Germany), and the kinase reaction was initiated by addition of 2 μl of the solution containing peptide substrate and ATP. After 60 min incubation at 32° C., the reaction was stopped by addition of 20 μl of a solution containing 130 mM Hepes-NaOH, pH 7.4, 0.0195% (v/v) Brij-35, 6.5 mM EDTA, 0.13% chip coating reagent 3 (Caliper Lifescience Inc, Hopkinton, Mass.) and 6.5% (v/v) DMSO. Phosphorylation of the substrate peptide was then detected on a Caliper 3000 instrument essentially as described by Pommereau et al (J. Biomol. Screening 2004, 9(5), […]), Separation conditions were as follows: Pressure −0.8 psi, upstream voltage −3000 V, downstream voltage −800 V. Positive controls (buffer 1 instead of compound) and negative controls (buffer 1 instead of compound and buffer 2 instead of kinase solution) were run in parallel on each plate. Fractional turnover (R) was determined as the height of the peak of the phosphorylated peptide product divided by the sum of the unphosphorylated substrate and phosphorylated product peak heights. Percent-inhibition values for the test compounds were determined using the formula
% Inhibition=100*(1−(Rcompound−Rnegative control)/(Rpositive control−Rnegative control).

T1 sequence (P05771 1-673 isoform P05771-2): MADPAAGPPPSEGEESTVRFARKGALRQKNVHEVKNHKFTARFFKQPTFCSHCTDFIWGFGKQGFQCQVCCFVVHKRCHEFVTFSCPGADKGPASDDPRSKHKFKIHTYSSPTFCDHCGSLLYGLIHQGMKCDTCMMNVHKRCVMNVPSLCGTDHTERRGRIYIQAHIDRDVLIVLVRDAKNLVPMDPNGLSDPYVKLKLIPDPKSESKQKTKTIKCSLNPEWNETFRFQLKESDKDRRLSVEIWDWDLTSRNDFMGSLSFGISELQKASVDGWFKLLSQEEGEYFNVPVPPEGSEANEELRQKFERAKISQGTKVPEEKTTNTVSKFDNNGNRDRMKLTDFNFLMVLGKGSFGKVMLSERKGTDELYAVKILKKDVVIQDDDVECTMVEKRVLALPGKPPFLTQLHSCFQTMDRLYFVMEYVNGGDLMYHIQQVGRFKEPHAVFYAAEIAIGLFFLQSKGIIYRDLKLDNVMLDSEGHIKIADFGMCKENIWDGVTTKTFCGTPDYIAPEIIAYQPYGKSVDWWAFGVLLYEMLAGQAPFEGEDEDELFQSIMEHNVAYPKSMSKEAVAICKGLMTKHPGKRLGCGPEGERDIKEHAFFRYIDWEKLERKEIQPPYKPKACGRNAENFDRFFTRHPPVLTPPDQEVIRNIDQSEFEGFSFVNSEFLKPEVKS

Consider `O=C(N[C@@H]1CN2CCC1CC2)c1cc(-c2ccc(O)cc2)nc2[nH]ncc12` [Example 40, 6-(4-Hydroxy-phenyl)-1H-pyrazolo[3,4-b]pyridine-4-carboxylic acid-(S)-(1-Aza-bicyclo[2.2.2]oct-3-yl)amide], for which the inhibition at 1.14 µM is 71%. In the case of `O=C(NC1CCNC2(CCC2)C1)c1cc(-c2ccc(O)cc2)nc2[nH]ncc12` (stereo not shown) [Example 32, 6-(4-Hydroxy-phenyl)-1H-pyrazolo[3,4-b]pyridine-4-carboxylic acid (5-aza-spiro[3.5]non-8-yl)-amide], the inhibition at 1.14 µM came out at 69%. Turning to `O=C(c1cc(-c2ccc(O)cc2)nc2[nH]ncc12)N1CCCC2(CCNC2)C1` (stereo not shown) [Example 24, (2,7-Diaza-spiro[4.5]dec-7-yl)-[6-(4-hydroxy-phenyl)-1H-pyrazolo[3,4-b]pyridin-4-yl]-methanone], the inhibition at 1.14 µM amounted to 29%. Consider `CO[C@H]1CNC[C@@H]1NC(=O)c1cc(-c2ccc(O)cc2)nc2[nH]ncc12` [Example 6, 6-(4-Hydroxy-phenyl)-1H-pyrazolo[3,4-b]pyridine-4-carboxylic acid ((3S,4S)-4-methoxy-pyrrolidin-3-yl)-amide], for which the inhibition at 1.14 µM was 87%. Next, `O=C(c1cc(-c2ccc(O)cc2)nc2[nH]ncc12)N1CCC2(CCNCC2)C1` [Example 22, (2,8-Diaza-spiro[4.5]dec-2-yl)-[6-(4-hydroxy-phenyl)-1H-pyrazolo[3,4-b]pyridin-4-yl]-methanone]: 42%. Next, `CO[C@H]1CNC[C@@H]1NC(=O)c1cc(-c2ccc(O)cc2)nc2[nH]ncc12` (racemic) [Example 29, 6-(4-Hydroxy-phenyl)-1H-pyrazolo[3,4-b]pyridine-4-carboxylic acid (trans-4-methoxy-pyrrolidin-3-yl)-amide]: 87%; `CN1CC(NC(=O)c2cc(-c3ccc(O)cc3)nc3[nH]ncc23)C1` [Example 62, 6-(4-Hydroxy-phenyl)-1H-pyrazolo[3,4-b]pyridine-4-carboxylic acid (1-methyl-azetidin-3-yl)-amide]: 73%. On to `O=C(N[C@@H]1CCCNC1)c1cc(-c2ccc(O)cc2)nc2[nH]ncc12` [Example 19, 6-(4-Hydroxy-phenyl)-1H-pyrazolo[3,4-b]pyridine-4-carboxylic acid (R)-piperidin-3-ylamide], for which the inhibition at 1.14 µM turned out to be 83%.

With `O=C(c1cc(-c2ccc(O)cc2)nc2[nH]ncc12)N1CCC2(CC1)CNC2` [Example 21, (2,7-Diaza-spiro[3.5]non-7-yl)-[6-(4-hydroxy-phenyl)-1H-pyrazolo[3,4-b]pyridin-4-yl]-methanone], the inhibition at 1.14 µM is 59%. Next, `CN1CCN(C(=O)c2cc(-c3ccc(O)cc3)nc3[nH]ncc23)CC1` [Example 52, [6-(4-Hydroxy-phenyl)-1H-pyrazolo[3,4-b]pyridin-4-yl]-(4-methyl-piperazin-1-yl)-methanone]: 38%; `COCCN1CCN(C(=O)c2cc(-c3ccc(O)cc3)nc3[nH]ncc23)CC1` [Example 71, [6-(4-Hydroxy-phenyl)-1H-pyrazolo[3,4-b]pyridin-4-yl]-[4-(2-methoxy-ethyl)-piperazin-1-yl]-methanone]: 27%; `CN(C(=O)c1cc(-c2ccc(O)cc2)nc2[nH]ncc12)C1CCNCC1` [Example 42, 6-(4-Hydroxy-phenyl)-1H-pyrazolo[3,4-b]pyridine-4-carboxylic acid methyl-piperidin-4-yl-amide]: 39%. Next, `O=C(c1cc(-c2ccc(O)cc2)nc2[nH]ncc12)N1CCN(C(=O)C2CCCO2)CC1` (stereo not shown) [Example 61, [6-(4-Hydroxy-phenyl)-1H-pyrazolo[3,4-b]pyridin-4-yl]-[4-(tetrahydro-furan-2-carbonyl)-piperazin-1-yl]-methanone]: 22%. Next, `O=C(c1cccnc1)N1CCN(C(=O)c2cc(-c3ccc(O)cc3)nc3[nH]ncc23)CC1` [Example 74, [6-(4-Hydroxy-phenyl)-1H-pyrazolo[3,4-b]pyridin-4-yl]-[4-(pyridine-3-carbonyl)-piperazin-1-yl]-methanone]: 35%; `O=C(NC1CN2CCC1CC2)c1cc(-c2ccc(O)cc2)nc2[nH]ncc12` (stereo not shown) [Example 72, 6-(4-Hydroxy-phenyl)-1H-pyrazolo[3,4-b]pyridine-4-carboxylic acid (1-aza-bicyclo[2.2.2]oct-3-yl)-amide]: 78%.

With `NC1CCN(C(=O)c2cc(-c3ccc(O)cc3)nc3[nH]ncc23)CC1` [Example 38, (4-Amino-piperidin-1-yl)-[6-(4-hydroxy-phenyl)-1H-pyrazolo[3,4-b]pyridin-4-yl]-methanone], the inhibition at 1.14 µM is 60%.

For the molecule `CC(=O)N1CCCN(C(=O)c2cc(-c3ccc(O)cc3)nc3[nH]ncc23)CC1` [Example 59, 1-{4-[6-(4-Hydroxy-phenyl)-1H-pyrazolo[3,4-b]pyridine-4-carbonyl]-[1,4]diazepan-1-yl}-ethanone], the inhibition at 1.14 µM is 48%. Next, `N[C@H]1CC[C@H](CNC(=O)c2cc(-c3ccc(O)cc3)nc3[nH]ncc23)CC1` [Example 11, 6-(4-Hydroxy-phenyl)-1H-pyrazolo[3,4-b]pyridine-4-carboxylic acid (trans-4-amino-cyclohexylmethyl)-amide]: 87%. As to `CN1CCC(NC(=O)c2cc(-c3ccc(O)cc3)nc3[nH]ncc23)CC1` [Example 66, 6-(4-Hydroxy-phenyl)-1H-pyrazolo[3,4-b]pyridine-4-carboxylic acid (1-methyl-piperidin-4-yl)-amide], the inhibition at 1.14 µM is 59%.

`CCN1CCCC(NC(=O)c2cc(-c3ccc(O)cc3)nc3[nH]ncc23)C1` (stereo not shown) [Example 60, 6-(4-Hydroxy-phenyl)-1H-pyrazolo[3,4-b]pyridine-4-carboxylic acid (1-ethyl-piperidin-3-yl)-amide]: the inhibition at 1.14 µM worked out at 54%. Next, `O=C(N[C@@H]1CCCN(Cc2ccccc2)C1)c1cc(-c2ccc(O)cc2)nc2[nH]ncc12` [Example 77, 6-(4-Hydroxy-phenyl)-1H-pyrazolo[3,4-b]pyridine-4-carboxylic acid ((R)-1-benzyl-piperidin-3-yl)-amide]: 57%; `O=C(c1cc(-c2ccc(O)cc2)nc2[nH]ncc12)N1CCC2(CCNC2)C1` (stereo not shown) [Example 25, (2,7-Diaza-spiro[4.4]non-2-yl)-[6-(4-hydroxy-phenyl)-1H-pyrazolo[3,4-b]pyridin-4-yl]-methanone]: 58%; `N[C@H]1C[C@@H]1NC(=O)c1cc(-c2ccc(O)cc2)nc2[nH]ncc12` (racemic) [Example 51, 6-(4-Hydroxy-phenyl)-1H-pyrazolo[3,4-b]pyridine-4-carboxylic acid (trans-2-amino-cyclopropyl)-amide]: 55%. With `O=C(c1cc(-c2ccc(O)cc2)nc2[nH]ncc12)N1CCC2(CC1)CNCCO2` [Example 26, [6-(4-Hydroxy-phenyl)-1H-pyrazolo[3,4-b]pyridin-4-yl]-(1-oxa-4,9-diaza-spiro[5.5]undec-9-yl)-methanone], the inhibition at 1.14 µM was found to be 36%. Next, `O=C(NC1CC2(CCNCC2)c2ccccc21)c1cc(-c2ccc(O)cc2)nc2[nH]ncc12` (stereo not shown) [Example 50, 6-(4-hydroxy-phenyl)-1H-pyrazolo[3,4-b]pyridine-4-carboxylic acid (2,3-dihydrospiro[1H-indene-1,4′-piperidin]-3-yl)-amide]: 97%. Next, `O=C(c1cc(-c2ccc(O)cc2)nc2[nH]ncc12)N1CCC2(CC1)CNc1ccccc12` [Example 49]: 28%; `CN1CCC(N(C)C(=O)c2cc(-c3ccc(O)cc3)nc3[nH]ncc23)CC1` [Example 73, 6-(4-Hydroxy-phenyl)-1H-pyrazolo[3,4-b]pyridine-4-carboxylic acid methyl-(1-methyl-piperidin-4-yl)-amide]: 31%. Next, `O=C(NC1CCN(Cc2cccnc2)CC1)c1cc(-c2ccc(O)cc2)nc2[nH]ncc12` [Example 78, 6-(4-Hydroxy-phenyl)-1H-pyrazolo[3,4-b]pyridine-4-carboxylic acid (1-pyridin-3-ylmethyl-piperidin-4-yl)-amide]: 84%.
